Experimental data from ChEMBL document CHEMBL5143737, “Identification of Human Alanine-Glyoxylate Aminotransferase Ligands as Pharmacological Chaperones for Variants Associated with Primary Hyperoxaluria Type 1” (J Med Chem, 2022).

Assays:
Assay type in all cases: toxicity, cell-based, Cricetulus griseus
Conditions in all cases: chinese hamster, 168 h, time 7 day
[1] = system: CHO; experiment: Cytotoxicity against CHO cells expressing AGT G41R variant and glycolate oxidase assessed as reduction in cell viability at 50 uM measured after 7 days by crystal violet staining assay
[2] = system: CHO; experiment: Cytotoxicity against CHO cells expressing AGT G41R variant and glycolate oxidase assessed reduction in cell viability at 50 uM measured after 7 days in presence of pyridoxine by crystal violet staining assay
[3] = system: CHO; experiment: Cytotoxicity against CHO cells expressing AGT and glycolate oxidase assessed as reduction in cell viability at 50 uM measured after 7 days by crystal violet staining assay

SMILES	Activity [1]	Activity [2]	Activity [3]
CN1CCN(c2cccc(CON)c2)CC1	Toxic	Toxic	Toxic
Cl.NOCc1ccc(F)cc1F	Non-Toxic		Non-Toxic
NOCc1cccc(-c2ccc(C(F)(F)F)cc2)c1	Non-Toxic	Non-Toxic	Non-Toxic
NOCc1cc2ccccc2s1			Non-Toxic
COc1c(C)cnc(CON)c1C	Non-Toxic	Non-Toxic	Non-Toxic
